These compounds were tested against T1, human 5-HT4(a) (Homo sapiens, UniProt Q13639) (assay: Evaluation of agonistic activity in CHO-K1 cells expressing human 5-HT4(a) (GeneBlAzer HTR4-CRE-bla CHO-K1, beta-lactamase reporter)). Conditions: CHO-K1 cells stably expressing human 5-HT4(a).
T1 construct: host or cells: GeneBlAzer HTR4-CRE-bla CHO-K1 cells
Type: cell-based
Description: Test Example 1: Evaluation of Agonistic Activity in CHO-K1 Cells Expressing Human 5-HT4(a)
As CHO-K1 cells stably expressing human 5-HT4(a), we used the GeneBlAzer HTR4-CRE-bla CHO-K1 cells (Invitrogen Corp.). The cells were cultured, under the condition of 37[…] and 5% CO2, in a DMEM supplemented with 10% fetal bovine serum (FBS), 25 mM HEPES (pH7.4), 600 μg/ml hygromycin B, 0.1 mM non-essential amino acids, 100 unit/ml penicillin and 100 μg/ml streptomycin. Subcultures were performed three times per one week, each being at less than 80% confluence. At the previous day before treating test compounds, the cells were collected using 0.5% trypsin/EDTA and then diluted with a DMEM supplemented with 1% FBS, 25 mM HEPES, and 0.1 mM non-essential amino acids into 3.125×10^5 cells/ml. 32 μl of the diluted cells were added into 384-well plate (10^4 cells per well) and then incubated overnight. After the overnight culture, 8 μl of the medium having 1% of DMSO was added into the cell-free control well and the non-stimulating control well, respectively. 8 μl of the respective test compound dilutions (which had been prepared by diluting by 100-times with the medium as mentioned in the above) having 1% of DMSO were added to the respective remaining wells. After being cultured in the incubator for 5 hours, the wells of the 384-plate were treated with the substrate solution (8 μl per well) prepared according to the vendor's instruction (i.e., Invitrogen's instruction), and then incubated in the dark room for additional two hours. Agonistic activities on 5-HT4 receptor were evaluated, on the basis of fluorescence values of the cleavage-products by beta-lactamase. After exciting to 410 nm of wavelength using a fluorescence detector (Genios Pro), we measured the fluorescence values at two emission wavelengths (first wavelength: 465 nm, second wavelength: 535 nm). Data were analyzed on the basis of the ratio of fluorescence intensities of each well at the respective wavelengths. Each EC50 value was calculated by non-linear regression analysis using the “GraphPad Prism” program, based on the activities according to 8-different concentrations of the test compounds.

T1 sequence (Q13639 1-387 isoform Q13639-2): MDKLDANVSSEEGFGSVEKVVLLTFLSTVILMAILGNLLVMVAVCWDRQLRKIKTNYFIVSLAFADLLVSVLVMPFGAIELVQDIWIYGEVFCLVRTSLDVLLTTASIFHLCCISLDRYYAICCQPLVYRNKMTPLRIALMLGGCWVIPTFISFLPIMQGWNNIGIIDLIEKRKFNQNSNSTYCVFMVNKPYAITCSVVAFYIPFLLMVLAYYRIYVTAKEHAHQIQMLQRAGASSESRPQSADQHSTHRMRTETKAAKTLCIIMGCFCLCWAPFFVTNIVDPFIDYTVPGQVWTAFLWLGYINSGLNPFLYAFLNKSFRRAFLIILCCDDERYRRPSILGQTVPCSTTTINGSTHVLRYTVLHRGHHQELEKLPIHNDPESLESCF

EC50 | SMILES
0.15 nM | CCCc1cc(N2CC[C@H](NC(=O)Cc3cccnc3)C2)nc(Nc2cccc(C#N)c2)n1 [Example 77, (S)-N-{1-[2-(3-cyanophenylamino)-6-propylpyrimidin-4-yl]pyrrolidin-3-yl}-2-(pyridin-3-yl)acetamide]
0.28 nM | CCCc1cc(N2CC[C@H](NC(=O)Cc3ccncc3)C2)nc(Nc2cccc(C#N)c2)n1 [Example 78, (S)-N-{1-[2-(3-cyanophenylamino)-6-propylpyrimidin-4-yl]pyrrolidin-3-yl}-2-(pyridin-4-yl)acetamide]
0.44 nM | CCCc1cc(N2CC[C@H](NC(=O)C/C=C/c3ccccc3)C2)nc(Nc2cccc(C#N)c2)n1 [Example 79, (S,E)-N-{1-[2-(3-cyanophenylamino)-6-propylpyrimidin-4-yl]pyrrolidin-3-yl}-4-phenylbut-3-enamide]
0.17 nM | CCCc1cc(N2CC[C@H](NC(=O)Cc3cccs3)C2)nc(Nc2cccc(C#N)c2)n1 [Example 80, (S)-N-{1-[2-(3-cyanophenylamino)-6-propylpyrimidin-4-yl]pyrrolidin-3-yl}-2-(thiophen-2-yl)acetamide]
0.205 nM | CCCc1cc(N2CC[C@H](NC(=O)C(C)C)C2)nc(Nc2cccc(C#N)c2)n1 [Example 81, (S)-N-{1-[2-(3-cyanophenylamino)-6-propylpyrimidin-4-yl]pyrrolidin-3-yl}isobutyramide]
0.048 nM | CCCc1cc(N2CC[C@H](NC(=O)CC(F)(F)F)C2)nc(Nc2cccc(C#N)c2)n1 [Example 82, (S)-N-{1-[2-(3-cyanophenylamino)-6-propylpyrimidin-4-yl]pyrrolidin-3-yl}-3,3,3-trifluoropropanamide]
0.031 nM | CCCCCCN[C@H]1CCN(c2cc(CCC)nc(Nc3cccc(C#N)c3)n2)C1 [Example 84, (S)-3-{4-[3-(hexylamino)pyrrolidin-1-yl]-6-propylpyrimidin-2-ylamino}benzonitrile]
0.003 nM | CCCN[C@H]1CCN(c2cc(CCC)nc(Nc3cccc(C#N)c3)n2)C1 [Example 85, (S)-3-{4-propyl-6-[3-(propylamino)pyrrolidin-1-yl]pyrimidin-2-ylamino}benzonitrile]
0.039 nM | CCCc1cc(N2CC[C@H](NCC3CCCCC3)C2)nc(Nc2cccc(C#N)c2)n1 [Example 86, (S)-3-{4-[3-(cyclohexylmethylamino)pyrrolidin-1-yl]-6-propylpyrimidin-2-ylamino}benzonitrile]
0.048 nM | CCCc1cc(N2CC[C@H](NCc3ccccc3)C2)nc(Nc2cccc(C#N)c2)n1 [Example 87, (S)-3-{4-[3-(benzylamino)pyrrolidin-1-yl]-6-propylpyrimidin-2-ylamino}benzonitrile]
0.041 nM | CCCc1cc(N2CC[C@H](NCCc3ccccc3)C2)nc(Nc2cccc(C#N)c2)n1 [Example 88, (S)-3-{4-[3-(phenethylamino)pyrrolidin-1-yl]-6-propylpyrimidin-2-ylamino}benzonitrile]
0.08 nM | CCCc1cc(N2CC[C@H](NCCCc3ccccc3)C2)nc(Nc2cccc(C#N)c2)n1 [Example 89, (S)-3-{4-[3-(3-phenylpropylamino)pyrrolidin-1-yl]-6-propylpyrimidin-2-ylamino}benzonitrile]
0.091 nM | CCCc1cc(N2CC[C@H](NCc3cccc(F)c3)C2)nc(Nc2cccc(C#N)c2)n1 [Example 90, (S)-3-{4-[3-(3-fluorobenzylamino)pyrrolidin-1-yl]-6-propylpyrimidin-2-ylamino}benzonitrile]
0.014 nM | CCCc1cc(N2CC[C@H](NCc3ccc(O)cc3)C2)nc(Nc2cccc(C#N)c2)n1 [Example 91, (S)-3-{4-[3-(4-hydroxybenzylamino)pyrrolidin-1-yl]-6-propylpyrimidin-2-ylamino}benzonitrile]
0.057 nM | CCCc1cc(N2CC[C@H](NCc3ccc(CC)cc3)C2)nc(Nc2cccc(C#N)c2)n1 [Example 92, (S)-3-{4-[3-(4-ethylbenzylamino)pyrrolidin-1-yl]-6-propylpyrimidin-2-ylamino}benzonitrile]
0.01 nM | CCCc1cc(N2CC[C@H](NCCC(C)C)C2)nc(Nc2cccc(C#N)c2)n1 [Example 93, (S)-3-{4-[3-(isopentylamino)pyrrolidin-1-yl]-6-propylpyrimidin-2-ylamino}benzonitrile]
0.041 nM | CCCCCN[C@H]1CCN(c2cc(CCC)nc(Nc3cccc(C#N)c3)n2)C1 [Example 94, (S)-3-{4-[3-(pentylamino)pyrrolidin-1-yl]-6-propylpyrimidin-2-ylamino}benzonitrile]
0.081 nM | CCCc1cc(N2CC[C@H](NCC(C)CC)C2)nc(Nc2cccc(C#N)c2)n1 (stereo partly drawn) [Example 95, 3-{4-[(3S)-3-(2-methylbutylamino)pyrrolidin-1-yl]-6-propylpyrimidin-2-ylamino}benzonitrile]
0.017 nM | CCCc1cc(N2CC[C@H](NCC(C)C)C2)nc(Nc2cccc(C#N)c2)n1 [Example 96, (S)-3-{4-[3-(isobutylamino)pyrrolidin-1-yl]-6-propylpyrimidin-2-ylamino}benzonitrile]
0.046 nM | CCCc1cc(N2CC[C@H](NCc3ccc(OC)cc3)C2)nc(Nc2cccc(C#N)c2)n1 [Example 97, (S)-3-{4-[3-(4-methoxybenzylamino)pyrrolidin-1-yl]-6-propylpyrimidin-2-ylamino}benzonitrile]
0.094 nM | CCCc1cc(N2CC[C@H](NCc3ccc(F)cc3)C2)nc(Nc2cccc(C#N)c2)n1 [Example 98, (S)-3-{4-[3-(4-fluorobenzylamino)pyrrolidin-1-yl]-6-propylpyrimidin-2-ylamino}benzonitrile]
0.0015 nM | CCCc1cc(N2CC[C@H](NCC3CC3)C2)nc(Nc2cccc(C#N)c2)n1 [Example 99, (S)-3-{4-[3-(cyclopropylmethylamino)pyrrolidin-1-yl]-6-propylpyrimidin-2-ylamino}benzonitrile]
0.31 nM | CCCc1cc(N2CC[C@H](N(CC3CC3)CC3CC3)C2)nc(Nc2cccc(C#N)c2)n1 [Example 100, (S)-3-(4-{3-[bis (cyclopropylmethyl)amino]pyrrolidin-1-yl}-6-propylpyrimidin-2-ylamino)benzonitrile]
0.39 nM | CCCc1cc(N2CC[C@H](NCc3cccnc3)C2)nc(Nc2cccc(C#N)c2)n1 [Example 102, (S)-3-{4-propyl-6-[3-(pyridin-3-ylmethylamino)pyrrolidin-1-yl]pyrimidin-2-ylamino}benzonitrile]
0.067 nM | CCCc1cc(N2CC[C@H](NCc3ccncc3)C2)nc(Nc2cccc(C#N)c2)n1 [Example 103, (S)-3-{4-propyl-6-[3-(pyridin-4-ylmethylamino)pyrrolidin-1-yl]pyrimidin-2-ylamino}benzonitrile]
0.005 nM | CCCc1cc(N2CC[C@H](NCC(C)(C)C)C2)nc(Nc2cccc(C#N)c2)n1 [Example 105, (S)-3-{4-[3-(neopentylamino)pyrrolidin-1-yl]-6-propylpyrimidin-2-ylamino}benzonitrile]
0.13 nM | CCCc1cc(N2CC[C@H](NCc3ccccc3F)C2)nc(Nc2cccc(C#N)c2)n1 [Example 106, (S)-3-{4-[3-(2-fluorobenzylamino)pyrrolidin-1-yl]-6-propylpyrimidin-2-ylamino}benzonitrile]
0.42 nM | CCCc1cc(N2CC[C@H](NCc3cccc(C(F)(F)F)c3)C2)nc(Nc2cccc(C#N)c2)n1 [Example 107, (S)-3-(4-propyl-6-{3-[3-(trifluoromethyl)benzylamino]pyrrolidin-1-yl}pyrimidin-2-ylamino)benzonitrile]
